Read-outs that look alike come from different tables or passages of the source. Bridge positions count the residues as written; N and C are the ends. Square brackets hold non-standard residues; d marks the D form. Peptide text beside a SMILES is read from it. Ala(1-amidino-4-piperidyl) = N=C(N)N1CCC(C[C@H](N)C(=O)O)CC1; Phe(4-guanidino) = N=C(N)Nc1ccc(C[C@H](N)C(=O)O)cc1
Legend:
[1] = target: T1, huPA-H99Y R35A (Homo sapiens, UniProt P00749, H272Y/R198A); assay: Ki for inhibition of huPA-H99Y-R35A, chromogenic substrate; format: biochemical; conditions: 37°C; means ± S.D.; read-out: K i for inhibition of huPA-H99Y-R35A
T1 construct: To ensure that the uPAs purified from the conditioned media were completely in the two-chain form, they were treated with plasmin; hexa-His (C); made in house; host or cells: HEK293 6E suspension cells
Excerpt: (§1) Determination of Ki values
(§2) The initial reaction velocities were monitored at an absorbance of 405 nm. The inhibition constants (K i) were subsequently determined from the non-linear regression analyses of plots for V i/V o versus [I]0, using Equation 2, derived under assumption of competitive inhibition:
(§3) [drawing 2] (2) where V i and V 0 are the reaction velocities in the presence and absence of inhibitor, respectively; [S]0 and [I]0 are the substrate and inhibitor concentrations, respectively; K M is K M for substrate hydrolysis by each protease. In Equation 2, it is assumed that [S]free ≈ [S]0 and [I]free ≈ [I]0.

[2] = target: T2, huPA-H99Y V41A (Homo sapiens, UniProt P00749, H272Y/V208A); assay: Ki for inhibition of huPA-H99Y-V41A, chromogenic substrate; format: biochemical; conditions: 37°C; means ± S.D.; read-out: K i for inhibition of huPA-H99Y-V41A
T2 construct: To ensure that the uPAs purified from the conditioned media were completely in the two-chain form, they were treated with plasmin; hexa-His (C); made in house; host or cells: HEK293 6E suspension cells
Excerpt: as §1, §2, §3

[3] = target: T3, huPA-H99Y K143A (Homo sapiens, UniProt P00749, H272Y/K320A); assay: Ki for inhibition of huPA-H99Y-K143A, chromogenic substrate; format: biochemical; conditions: 37°C; means ± S.D.; read-out: K i for inhibition of huPA-H99Y-K143A
T3 construct: To ensure that the uPAs purified from the conditioned media were completely in the two-chain form, they were treated with plasmin; hexa-His (C); made in house; host or cells: HEK293 6E suspension cells
Excerpt: as §1, §2, §3

[4] = target: T4, muPA K41A (Mus musculus, UniProt P06869, K210A); assay: Ki for inhibition of muPA-K41A, chromogenic substrate; format: biochemical, murine; conditions: means ± S.D.; read-out: K i for inhibition of muPA-K41A
T4 construct: To ensure that the uPAs purified from the conditioned media were completely in the two-chain form, they were treated with plasmin; hexa-His (C); made in house; host or cells: HEK293 6E suspension cells
Excerpt: as §1, §2, §3

[5] = target: T5, muPA Y99A (Mus musculus, UniProt P06869, Y274A); assay: Ki for inhibition of muPA-Y99A, chromogenic substrate; format: biochemical, murine; conditions: means ± S.D.; read-out: K i for inhibition of muPA-Y99A
T5 construct: To ensure that the uPAs purified from the conditioned media were completely in the two-chain form, they were treated with plasmin; hexa-His (C); made in house; host or cells: HEK293 6E suspension cells
Excerpt: as §1, §2, §3

[6] = target: T6, muPA K143A (Mus musculus, UniProt P06869, K322A); assay: Ki for inhibition of muPA-K143A, chromogenic substrate; format: biochemical, murine; conditions: means ± S.D.; read-out: K i for inhibition of muPA-K143A
T6 construct: To ensure that the uPAs purified from the conditioned media were completely in the two-chain form, they were treated with plasmin; hexa-His (C); made in house; host or cells: HEK293 6E suspension cells
Excerpt: as §1, §2, §3

[7] = target: T7, muPA S190A (Mus musculus, UniProt P06869, S373A); assay: Ki for inhibition of muPA-S190A, chromogenic substrate; format: biochemical, murine; conditions: means ± S.D.; read-out: K i for inhibition of muPA-S190A
T7 construct: To ensure that the uPAs purified from the conditioned media were completely in the two-chain form, they were treated with plasmin; hexa-His (C); made in house; host or cells: HEK293 6E suspension cells
Excerpt: as §1, §2, §3

[8] = target: T8, muPA V213T (Mus musculus, UniProt P06869, V396T); assay: Ki for inhibition of muPA-V213T, chromogenic substrate; format: biochemical, murine; conditions: means ± S.D.; read-out: K i for inhibition of muPA-V213T
T8 construct: To ensure that the uPAs purified from the conditioned media were completely in the two-chain form, they were treated with plasmin; hexa-His (C); made in house; host or cells: HEK293 6E suspension cells
Excerpt: as §1, §2, §3

[9] = target: T9, huPA-H99Y (Homo sapiens, UniProt P00749, H272Y); assay: Surface plasmon resonance analysis of peptide binding to huPA-H99Y; conditions: SPR; for koff: read-out: koff of fitted curve, representative sensorgram; for kon: read-out: kon of fitted curve, representative sensorgram
T9 construct: To ensure that the uPAs purified from the conditioned media were completely in the two-chain form, they were treated with plasmin; hexa-His (C); made in house; host or cells: HEK293 6E suspension cells
Method: (§4) Surface plasmon resonance (SPR) analysis
(§5) To determine the equilibrium binding constants (KD), the association rate constants (kon) and dissociation rate constants (koff) for peptide binding to uPA, surface plasmon resonance analysis was performed on a Biacore T200 instrument (Biacore, Uppsala, Sweden). A CM5 chip was coupled with the uPA variant (muPA or huPAH99Y) to be analysed, by injecting a concentration of 30 µg/mL uPA in immobilization buffer (10 mM sodium acetate, pH 5.0), aiming for an immobilised level of approximately 500 response units (RU). Immobilisation was followed by surface blocking with ethanolamine. A reference cell was prepared in the same way, without coupling of uPA. Mupain-1 variants in HBS with 0.1% BSA, in a dilution series, were injected at a flow rate of 30 µL per min during 60 s at 25°C. Subsequently, the dissociation was monitored during 600 s. Kinetic constants (k on and k off) were calculated with the Biacore Evaluation Software, using the 1∶1 kinetic fit. The K D values were calculated as k off /k on.

[10] = target: T10, muPA (Mus musculus, UniProt P06869); assay: Surface plasmon resonance analysis of peptide binding to muPA; design: species or system murine; conditions: SPR, 25°C, pH 7.4
T10 construct: To ensure that the uPAs purified from the conditioned media were completely in the two-chain form, they were treated with plasmin; hexa-His (C); made in house; host or cells: HEK293 6E suspension cells
Method: as §4, §5

[11] = target: T9, huPA-H99Y; conditions: 37°C; means ± S.D.; starred values reproduced from previous publications; ref Andersen et al., 2008; Hosseini et al., 2011; read-out: K i for inhibition of huPA-H99Y; cited from earlier work
[12] = target: T11, muPA wt (Mus musculus, UniProt P06869); conditions: means ± S.D.; starred values reproduced from previous publications; ref Andersen et al., 2008; Hosseini et al., 2011; read-out: K i for inhibition of muPA wt; cited from earlier work
T11 construct: To ensure that the uPAs purified from the conditioned media were completely in the two-chain form, they were treated with plasmin; hexa-His (C); made in house; host or cells: HEK293 6E suspension cells

[13] = target: huPA-H99Y Q192A (Homo sapiens, UniProt P00749, H272Y/Q373A); assay: Ki for inhibition of huPA-H99Y-Q192A, chromogenic substrate; format: biochemical; design: To ensure that the uPAs purified from the conditioned media were completely in the two-chain form, they were treated with plasmin; hexa-His (C); made in house; host or cells: HEK293 6E suspension cells; conditions: 37°C; means ± S.D.; read-out: K i for inhibition of huPA-H99Y-Q192A
Excerpt: as §1, §2, §3

[14] = 25°C, pH 7.4, calculated as k off/k on, read-out: K D, huPA-H99Y
[15] = huPA-H99Y immobilized on CM5 chip, single example (S3 Fig), read-out: KD of fitted curve, representative sensorgram
[16] = huPA-H99Y immobilized on CM5 chip, single example (S3 Fig)

T10 sequence (P06869 180-433 limits assumed): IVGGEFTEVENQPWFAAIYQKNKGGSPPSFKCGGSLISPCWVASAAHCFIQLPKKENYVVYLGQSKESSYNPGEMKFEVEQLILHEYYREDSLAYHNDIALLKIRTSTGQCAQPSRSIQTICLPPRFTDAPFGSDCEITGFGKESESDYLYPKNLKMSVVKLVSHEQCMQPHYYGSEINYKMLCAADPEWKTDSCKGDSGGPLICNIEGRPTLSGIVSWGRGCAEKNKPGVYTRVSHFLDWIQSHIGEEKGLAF
T10 sequence (P06869 21-178 partner limits assumed): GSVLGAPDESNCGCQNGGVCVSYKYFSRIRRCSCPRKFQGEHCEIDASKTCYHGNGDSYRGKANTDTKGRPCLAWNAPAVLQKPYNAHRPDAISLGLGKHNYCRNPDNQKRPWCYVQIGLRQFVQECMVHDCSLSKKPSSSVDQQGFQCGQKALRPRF
T6 sequence (P06869 180-433 K322A): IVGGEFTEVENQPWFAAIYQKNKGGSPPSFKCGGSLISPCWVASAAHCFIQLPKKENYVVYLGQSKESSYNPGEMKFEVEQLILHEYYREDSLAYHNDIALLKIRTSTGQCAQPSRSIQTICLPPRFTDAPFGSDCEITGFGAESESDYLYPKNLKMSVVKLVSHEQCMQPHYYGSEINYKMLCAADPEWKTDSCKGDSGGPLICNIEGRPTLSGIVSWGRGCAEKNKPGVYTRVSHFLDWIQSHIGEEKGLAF
T6 sequence (P06869 21-178 partner limits assumed): as the sequence (P06869 21-178 partner limits assumed) above
T11 sequence (P06869 180-433 limits assumed): as the sequence (P06869 180-433 limits assumed) above
T11 sequence (P06869 21-178 partner limits assumed): as the sequence (P06869 21-178 partner limits assumed) above
T7 sequence (P06869 180-433 S373A): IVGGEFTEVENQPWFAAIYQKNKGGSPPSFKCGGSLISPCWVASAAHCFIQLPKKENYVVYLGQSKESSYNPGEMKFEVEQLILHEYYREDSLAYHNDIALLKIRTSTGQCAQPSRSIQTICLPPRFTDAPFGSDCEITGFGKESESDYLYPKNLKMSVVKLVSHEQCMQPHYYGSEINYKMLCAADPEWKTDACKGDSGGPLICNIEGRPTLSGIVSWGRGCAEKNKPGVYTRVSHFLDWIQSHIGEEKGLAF
T7 sequence (P06869 21-178 partner limits assumed): as the sequence (P06869 21-178 partner limits assumed) above
T5 sequence (P06869 180-433 Y274A): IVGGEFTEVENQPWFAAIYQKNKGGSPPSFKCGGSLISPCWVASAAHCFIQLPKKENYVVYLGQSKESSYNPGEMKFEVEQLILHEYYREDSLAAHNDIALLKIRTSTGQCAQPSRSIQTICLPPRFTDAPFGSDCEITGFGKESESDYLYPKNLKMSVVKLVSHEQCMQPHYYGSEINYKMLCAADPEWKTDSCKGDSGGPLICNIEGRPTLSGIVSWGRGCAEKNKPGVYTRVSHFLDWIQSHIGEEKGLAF
T5 sequence (P06869 21-178 partner limits assumed): as the sequence (P06869 21-178 partner limits assumed) above
T8 sequence (P06869 180-433 V396T): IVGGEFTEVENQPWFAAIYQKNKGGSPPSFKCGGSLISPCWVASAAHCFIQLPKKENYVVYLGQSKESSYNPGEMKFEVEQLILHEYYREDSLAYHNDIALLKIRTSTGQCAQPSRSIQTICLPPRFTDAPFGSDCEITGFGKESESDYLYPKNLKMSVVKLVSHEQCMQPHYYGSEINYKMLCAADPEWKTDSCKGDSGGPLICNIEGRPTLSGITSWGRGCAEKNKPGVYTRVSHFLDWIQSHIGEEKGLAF
T8 sequence (P06869 21-178 partner limits assumed): as the sequence (P06869 21-178 partner limits assumed) above
T4 sequence (P06869 180-433 K210A): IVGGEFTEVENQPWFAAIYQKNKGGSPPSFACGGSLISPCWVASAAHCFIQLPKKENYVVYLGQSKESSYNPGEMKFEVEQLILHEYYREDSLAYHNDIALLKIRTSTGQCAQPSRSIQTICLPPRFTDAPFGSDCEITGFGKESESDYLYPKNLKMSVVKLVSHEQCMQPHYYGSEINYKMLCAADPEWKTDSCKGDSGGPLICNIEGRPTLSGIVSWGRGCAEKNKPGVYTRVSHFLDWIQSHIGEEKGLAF
T4 sequence (P06869 21-178 partner limits assumed): as the sequence (P06869 21-178 partner limits assumed) above

Ki [1] [nM]	Ki [2] [nM]	Ki [3] [nM]	Ki [4] [nM]	Ki [5] [µM]	Ki [6] [nM]	Ki [7] [nM]	Ki [8] [nM]	k off, huPA-H99Y ([9]; 25°C, pH 7.4)	k on, huPA-H99Y ([9]; 25°C, pH 7.4)	Kd [9, 14] [nM]	Kd [9, 15] [nM]	koff [9, 16] [s⁻¹]	kon [9, 16] [M⁻¹ s⁻¹]	k off, muPA [10]	k on, muPA [10]	Ki [13] [nM]	SMILES	Ki [11] [nM]	Ki [12] [nM]
2500 ± 290	1950 ± 300	1130 ± 320	300 ± 50	1.24 ± 0.44	130 ± 20	352 ± 40	13 ± 3	8.93±0.46 (4) s^-1, ×10^2	1.07±0.15 (4) M^-1s^-1, ×10^-5	844 ± 132	920	0.0929	101000	0.671±0.119 (3) s^−1, ×10^2	0.898±0.545 (3) M^−1s^−1, ×10^−5	2710 ± 280	CC(=O)N[C@H]1CSSC[C@@H](C(N)=O)NC(=O)[C@H](CC(=O)O)NC(=O)[C@H](CC(C)C)NC(=O)[C@H](Cc2ccc(O)cc2)NC(=O)[C@H](CC2CCN(C(=N)N)CC2)NC(=O)[C@H](CO)NC(=O)[C@H](Cc2ccc(O)cc2)NC(=O)[C@H](C)NC(=O)[C@@H]2CCCN2C1=O [Mupain-1-16, CPAYS[L-3-(N-amidino-4-piperidyl)alanine]YLDC] (Ac-CPAYS[Ala(1-amidino-4-piperidyl)]YLDC-NH2; disulfide 1-10)	2480 ± 70	45 ± 10
3260 ± 1040	1600 ± 540	2140 ± 780	1720 ± 240	5.2 ± 0.06	1000 ± 40	2300 ± 460	86 ± 30	24.6±1.2 (4) s^-1, ×10^2	2.06±0.15 (4) M^-1s^-1, ×10^-5	1210 ± 130	1320	0.248	188000	1.92±0.63 (4) s^−1, ×10^2	1.56±0.95 (4) M^−1s^−1, ×10^−5	2350 ± 740	CC(=O)N[C@H]1CSSC[C@@H](C(N)=O)NC(=O)[C@H](CC(=O)O)NC(=O)[C@H](CC(C)C)NC(=O)[C@H](Cc2ccc(O)cc2)NC(=O)[C@H](Cc2ccc(NC(=N)N)cc2)NC(=O)[C@H](CO)NC(=O)[C@H](Cc2ccc(O)cc2)NC(=O)[C@H](C)NC(=O)[C@@H]2CCCN2C1=O [Mupain-1-12, CPAYS[4-guanidino-phenyl-alanine]YLDC] (Ac-CPAYS[Phe(4-guanidino)]YLDC-NH2; disulfide 1-10)	1860 ± 740	280 ± 20

Reference: paper PMC4278837, “A Cyclic Peptidic Serine Protease Inhibitor: Increasing Affinity by Increasing Peptide Flexibility” (PLoS ONE, 2014)
